From patent US10865191B2, “Heterocyclic compounds useful as modulators of TNF alpha” (BRISTOL-MYERS SQUIBB COMPANY, priority 2015, dated 2020)

The molecules below were run against TNFα (Homo sapiens, UniProt P01375) (assay: TNF induced HEK-Blue assay (NF-kB-driven secreted alkaline phosphatase reporter)). Conditions: TNF induced HEK-Blue assay IC50 value, TNFα 0.5 ng/mL, HEK-Blue-CD40L cells, 18 h.
Type: cell-based
Outline: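 HEK-Blue-CD40L cells (NF-kB-driven SEAP reporter), 20,000/well, added after 30 min pre-incubation of compound (0.004–25 μM final) with TNFα 0.5 ng/mL final at 37 °C; 18 h incubation. SEAP read with QUANTI-Blue at 620 nm; IC50 from 4-parameter logistic fit, normalized to unstimulated and stimulated DMSO controls.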

Chain of TNFα (P01375 77-233 limits assumed): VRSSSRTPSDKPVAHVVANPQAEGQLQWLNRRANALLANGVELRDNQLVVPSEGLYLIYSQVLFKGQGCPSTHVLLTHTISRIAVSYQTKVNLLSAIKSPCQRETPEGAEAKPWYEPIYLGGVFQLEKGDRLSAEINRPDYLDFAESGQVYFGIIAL

Row | Compound | IC50 [µM]
1 | CC(Nc1c(Cl)cnc2cc(F)c(-c3cnc(C(C)(C)O)nc3)cc12)c1ccccc1F (stereo not drawn) [Example 249, 2-(5-(3-chloro-7-fluoro-4-((1-(2-fluorophenyl)ethyl)amino)quinolin-6-yl)pyrimidin-2-yl)propan-2-ol] | 1 to 10
2 | C[C@@H](Nc1c(Cl)cnc2ccc(-c3cnc(C(C)(C)O)nc3)cc12)c1cc(N)ccc1F [Example 374, (R)-2-(5-(4-((1-(5-amino-2-fluorophenyl)ethyl)amino)-3-chloroquinolin-6-yl)pyrimidin-2-yl)propan-2-ol] | < 1
3 | CC(=O)N1CCC[C@@H](C(C)Nc2c(Cl)cnc3ccc(-c4cnc(C(C)(C)O)nc4)cc23)C1 (single isomer, unassigned) [Example 108] | 1 to 10
4 | C[C@@H](Nc1c(Cl)cnc2ccc(-c3cnc(C(C)(C)O)nc3)cc12)c1ccccc1 [Example 154, (R)-2-(5-(3-chloro-4-((1-phenylethyl)amino)quinolin-6-yl)pyrimidin-2-yl)propan-2-ol] | < 1

Same assay, conditions: TNFα 0.5 ng/mL, HEK-Blue-CD40L cells, 18 h; read-out: TNF induced HEK-Blue assay IC50 value

Row | Compound | IC50 [µM]
5 | CC(Nc1c(Cl)cnc2ccc(-c3ccc(C(C)(C)O)cc3)cc12)c1cccs1 (racemic) [Example 199, 2-(4-(3-chloro-4-((1-(thiophen-2-yl)ethyl)amino)quinolin-6-yl)phenyl)propan-2-ol] | < 1
6 | COC(=O)C1CCN(c2ncc(-c3cc4c(N[C@H](C)c5ccccc5F)c(Cl)cnc4cc3F)cn2)C1 (mixture of isomers) [Example 281, methyl 1-(5-(3-chloro-7-fluoro-4-(((R)-1-(2-fluorophenyl)ethyl)amino)quinolin-6-yl)pyrimidin-2-yl)pyrrolidine-3-carboxylate] | < 1
7 | Cc1ccc(C)c(C(C)Nc2c(Cl)cnc3ccc(-c4cnc(C(C)(C)O)nc4)cc23)c1 (racemic) [Example 149, 2-(5-(3-chloro-4-((1-(2,5-dimethylphenyl)ethyl)amino)quinolin-6-yl)pyrimidin-2-yl)propan-2-ol] | 1 to 10
8 | Cc1ccc(C)c(Nc2c(Cl)c(C(=O)Nc3cccnc3)nc3ccc(-c4ccc(C#N)nc4)cc23)c1 [Example 32, 3-chloro-6-(6-cyanopyridin-3-yl)-4-((2,5-dimethylphenyl)amino)-N-(pyridin-3-yl)quinoline-2-carboxamide] | < 1
9 | C[C@@H](Nc1c(Cl)cnc2ccc(-c3cnc(C(C)(C)O)nc3)cc12)c1cc(CC(O)CO)ccc1F (mixture of isomers) [Example 399, 3-(3-((R)-1-((3-chloro-6-(2-(2-hydroxypropan-2-yl)pyrimidin-5-yl)quinolin-4-yl)amino)ethyl)-4-fluorophenyl)propane-1,2-diol] | < 1
10 | C[C@@H](Nc1c(Cl)cnc2cc(F)c(-c3cnc(C(C)(C)O)nc3)nc12)c1cccc(C(O)CO)c1 (stereo partly drawn) [Example 573, 1-(3-((R)-1-((3-chloro-7-fluoro-6-(2-(2-hydroxypropan-2-yl)pyrimidin-5-yl)-1,5-naphthyridin-4-yl)amino)ethyl)phenyl)ethane-1,2-diol] | < 1
11 | Cc1nc2c(F)cc(-c3cnc(C(C)(C)O)nc3)cc2c(N[C@H](C)c2cc(C#N)ccc2F)c1Cl [Example 302, (R)-3-(1-((3-chloro-8-fluoro-6-(2-(2-hydroxypropan-2-yl)pyrimidin-5-yl)-2-methylquinolin-4-yl)amino)ethyl)-4-fluorobenzonitrile] | < 1
12 | Cc1nc2ccc(-c3cnc(C(C)(C)O)nc3)cc2c(N[C@H](C)c2cc(C(C)(O)CO)ccc2F)c1Cl (mixture of isomers) [Example 403, 2-(3-((R)-1-((3-chloro-6-(2-(2-hydroxypropan-2-yl)pyrimidin-5-yl)-2-methylquinolin-4-yl)amino)ethyl)-4-fluorophenyl)propane-1,2-diol] | < 1
13 | C[C@@H](Nc1c(Cl)cnc2ccccc12)c1cc(-c2cncc(N)c2)ccc1F [Example 511, (R)—N-(1-(5-(5-aminopyridin-3-yl)-2-fluorophenyl)ethyl)-3-chloroquinolin-4-amine] | < 1
14 | CC(Nc1c(Cl)cnc2cc(F)c(-c3cnc(N4CCN(C(=O)[C@@H](N)CO)CC4)nc3)cc12)c1ccccc1F (single isomer, unassigned) [Example 604] | < 1
15 | CCC(Nc1c(Cl)cnc2ccc(-c3cnc(C(C)(C)O)nc3)cc12)C1CCC1 (racemic) [Example 50, 2-(5-(3-chloro-4-((1-cyclobutylpropyl)amino)quinolin-6-yl)pyrimidin-2-yl)propan-2-ol] | < 1
16 | Cc1nc2c(F)cc(-c3cnc(C(C)(C)O)nc3)cc2c(NC(C)c2ccccc2)c1Cl (stereo not drawn) [Example 306, 2-(5-(3-chloro-8-fluoro-2-methyl-4-((1-phenylethyl)amino)quinolin-6-yl)pyrimidin-2-yl)propan-2-ol] | < 1
17 | Cc1nc2c(F)cc(-c3cnc(C(C)(C)O)nc3)cc2c(NC(C)c2ccc(F)cc2)c1Cl (racemic) [Example 301, 2-(5-(3-chloro-8-fluoro-4-((1-(4-fluorophenyl)ethyl)amino)-2-methylquinolin-6-yl)pyrimidin-2-yl)propan-2-ol] | 10 to 25
18 | C[C@@H](Nc1c(Cl)cnc2ccccc12)c1cc(-c2cnn(C(F)F)c2)ccc1F [Example 471, (R)-3-chloro-N-(1-(5-(1-(difluoromethyl)-1H-pyrazol-4-yl)-2-fluorophenyl)ethyl) quinolin-4-amine] | 1 to 10
19 | CC(C)(O)c1ncc(-c2ccc3ncc(Cl)c(NC(CCF)c4ccccc4F)c3c2)cn1 (racemic) [Example 230, 2-(5-(3-chloro-4-((3-fluoro-1-(2-fluorophenyl)propyl)amino)quinolin-6-yl)pyrimidin-2-yl) propan-2-ol] | < 1
20 | Cc1nc2ccc(-c3cnc(C(C)(C)O)nc3)cc2c(N[C@H](c2cc(C#N)ccc2F)C(F)F)c1Cl [Example 378, (R)-3-(1-((3-chloro-6-(2-(2-hydroxypropan-2-yl)pyrimidin-5-yl)-2-methylquinolin-4-yl)amino)-2,2-difluoroethyl)-4-fluorobenzonitrile] | 10 to 25
21 | CC(Nc1c(Cl)cnc2cc(F)c(-c3ccc(C(O)CO)cc3)cc12)c1ccccc1F (stereo not drawn) [Example 291, 1-(4-(3-chloro-7-fluoro-4-((1-(2-fluorophenyl)ethyl)amino)quinolin-6-yl)phenyl)ethane-1,2-diol] | < 1
22 | Cc1nc2ccc(-c3cnc(N4CCS(=O)(=O)CC4)nc3)cc2c(NC(C)c2ccccc2F)c1Cl (racemic) [Example 310, 4-(5-(3-chloro-4-((1-(2-fluorophenyl)ethyl)amino)-2-methylquinolin-6-yl)pyrimidin-2-yl)thiomorpholine 1,1-dioxide] | < 1
23 | CC(Cc1ccco1)Nc1c(Cl)cnc2ccc(-c3cnc(C(C)(C)O)nc3)cc12 (racemic) [Example 133, 2-(5-(3-chloro-4-((1-(furan-2-yl)propan-2-yl)amino)quinolin-6-yl)pyrimidin-2-yl)propan-2-ol] | < 1
24 | CC(Nc1c(Cl)cnc2ccc(-c3cnc(C(C)(C)O)nc3)cc12)c1ccccc1Cl (racemic) [Example 153, 2-(5-(3-chloro-4-((1-(2-chlorophenyl)ethyl)amino)quinolin-6-yl)pyrimidin-2-yl)propan-2-ol] | < 1
25 | CC(Nc1c(Cl)cnc2ccc(-c3ccc(C(C)(C)O)cc3)cc12)c1cnco1 (racemic) [Example 203, 2-(4-(3-chloro-4-((1-(oxazol-5-yl)ethyl)amino)quinolin-6-yl)phenyl)propan-2-ol] | < 1
26 | CC(C)(O)c1ncc(-c2cc3c(NC4(c5ccccc5F)CCC4)c(Cl)cnc3cc2F)cn1 [Example 609, 2-(5-(3-chloro-7-fluoro-4-((1-(2-fluorophenyl)cyclobutyl)amino)quinolin-6-yl)pyrimidin-2-yl)propan-2-ol] | 1 to 10
27 | C[C@@H](Nc1c(Cl)cnc2ccc(-c3ccc(C(N)CC(=O)O)cc3)cc12)c1ccccc1F (mixture of isomers) [Example 115, 3-amino-3-(4-(3-chloro-4-(((R)-1-(2-fluorophenyl)ethyl)amino)quinolin-6-yl)phenyl)propanoic acid] | 1 to 10
28 | Cc1nc2cc(F)c(-c3cnc(C(C)(C)O)nc3)nc2c(N[C@H](C)c2cc(C(=O)O)ccc2F)c1Cl [Example 582, (R)-3-(1-((3-chloro-7-fluoro-6-(2-(2-hydroxypropan-2-yl)pyrimidin-5-yl)-2-methyl-1,5-naphthyridin-4-yl)amino)ethyl)-4-fluorobenzoic acid] | 10 to 25
29 | C[C@@H](Nc1c(Cl)cnc2cnc(-c3cnc(N4CCN(CC(=O)O)CC4)nc3)cc12)c1ccccc1F (single isomer, unassigned) [Example 235] | 10 to 25
30 | C[C@@H](Nc1c(Cl)cnc2ccccc12)c1cc(-c2ccncc2)ccc1F [Example 468, (R)-3-chloro-N-(1-(2-fluoro-5-(pyridin-4-yl)phenyl)ethyl)quinolin-4-amine] | 1 to 10
31 | C[C@@H](Nc1c(Cl)cnc2ccccc12)c1cc(-c2ccnc3[nH]ccc23)ccc1F [Example 525, (R)-3-chloro-N-(1-(2-fluoro-5-(1H-pyrrolo[2,3-b]pyridin-4-yl)phenyl)ethyl) quinolin-4-amine] | 1 to 10
32 | Cc1nc2ccc(-c3cnc(C(C)(C)O)nc3)cc2c(N[C@H](C)c2cc(C#N)ccc2F)c1Cl [Example 375, (R)-3-(1-((3-chloro-6-(2-(2-hydroxypropan-2-yl)pyrimidin-5-yl)-2-methylquinolin-4-yl)amino)ethyl)-4-fluorobenzonitrile] | < 1
33 | CNC(=O)CN1CCN(c2ncc(-c3ccc4ncc(Cl)c(N[C@H](C)c5ccccc5F)c4c3)cn2)CC1 [Example 89, (R)-2-(4-(5-(3-chloro-4-((1-(2-fluorophenyl)ethyl)amino)quinolin-6-yl)pyrimidin-2-yl)piperazin-1-yl)-N-methylacetamide] | < 1
